Measurements taken from ChEMBL document CHEMBL1909046, “DrugMatrix in vitro pharmacology data”.

Experiments:
[1] = DRUGMATRIX: Platelet-Derived Growth Factor (PDGF) radioligand binding (ligand: [125I] PDGF); format: cell-based; conditions: nih3t3; Not Active = under 50% inhibition at 10 µM
[2] = DRUGMATRIX: Phosphodiesterase PDE4 enzyme inhibition (substrate: [3H]cAMP + cAMP); conditions: u-937; Not Active = under 50% inhibition at 10 µM
[3] = DRUGMATRIX: Calcium Channel Type L, Phenylalkylamine radioligand binding (ligand: [3H] (-)-Desmethoxyverapamil (D-888)); format: cell membranes, Rattus norvegicus, Wistar, Brain, Membrane; conditions: Not Active = under 50% inhibition at 10 µM
Substance-K receptor = biological target: T1, Substance-K receptor (Homo sapiens, UniProt P21452); format: cell membranes, CHO, Membrane; note: in other assays of this panel Not Active means under 50% inhibition at 10 µM
T1 sequence (P21452 whole entry): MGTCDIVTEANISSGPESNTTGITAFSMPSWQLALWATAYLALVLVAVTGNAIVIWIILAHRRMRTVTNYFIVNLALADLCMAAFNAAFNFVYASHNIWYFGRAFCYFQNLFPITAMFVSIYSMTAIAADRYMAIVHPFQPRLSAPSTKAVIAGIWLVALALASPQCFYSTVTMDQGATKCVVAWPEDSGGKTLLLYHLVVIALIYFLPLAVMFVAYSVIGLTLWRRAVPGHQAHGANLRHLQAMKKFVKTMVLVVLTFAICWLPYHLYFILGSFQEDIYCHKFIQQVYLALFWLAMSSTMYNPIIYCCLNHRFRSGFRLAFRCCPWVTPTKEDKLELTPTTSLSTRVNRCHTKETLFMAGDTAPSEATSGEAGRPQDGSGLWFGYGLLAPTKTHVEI

[4] = biological target: T2, C-X-C chemokine receptor type 2 (Homo sapiens, UniProt P25025); format: cell membranes, Membrane; conditions: cho-k1; note: in other assays of this panel Not Active means under 50% inhibition at 10 µM
T2 sequence (P25025 whole entry): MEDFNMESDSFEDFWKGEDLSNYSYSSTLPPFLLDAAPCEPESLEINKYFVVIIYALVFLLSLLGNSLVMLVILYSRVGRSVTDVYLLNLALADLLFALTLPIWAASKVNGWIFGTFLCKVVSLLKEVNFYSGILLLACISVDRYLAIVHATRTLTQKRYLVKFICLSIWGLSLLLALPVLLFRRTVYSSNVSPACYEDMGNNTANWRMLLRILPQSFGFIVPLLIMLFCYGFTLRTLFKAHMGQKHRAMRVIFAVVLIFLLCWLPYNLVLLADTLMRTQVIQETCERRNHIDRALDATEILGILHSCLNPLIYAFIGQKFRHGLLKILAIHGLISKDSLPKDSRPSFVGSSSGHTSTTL

[5] = biological target: T3, Vasoactive intestinal polypeptide receptor 1 (Homo sapiens, UniProt P32241); format: cell membranes, Membrane; conditions: ht-29; note: in other assays of this panel Not Active means under 50% inhibition at 10 µM
T3 sequence (P32241 whole entry): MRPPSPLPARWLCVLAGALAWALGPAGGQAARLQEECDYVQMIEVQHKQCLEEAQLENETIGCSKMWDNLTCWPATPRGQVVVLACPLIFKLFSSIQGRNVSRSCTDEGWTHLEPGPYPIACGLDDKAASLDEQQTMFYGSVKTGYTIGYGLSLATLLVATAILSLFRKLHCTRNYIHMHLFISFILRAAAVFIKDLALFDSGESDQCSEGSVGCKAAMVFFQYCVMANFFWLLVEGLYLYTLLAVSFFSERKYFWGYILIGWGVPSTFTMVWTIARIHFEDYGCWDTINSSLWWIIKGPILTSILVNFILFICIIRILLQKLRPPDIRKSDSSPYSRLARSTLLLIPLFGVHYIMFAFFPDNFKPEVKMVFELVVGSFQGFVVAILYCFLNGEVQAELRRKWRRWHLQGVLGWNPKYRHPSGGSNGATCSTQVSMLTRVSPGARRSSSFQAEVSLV

[6] = DRUGMATRIX: Serotonin (5-Hydroxytryptamine) 5-HT3 radioligand binding (ligand: [3H] GR-65630); format: cell membranes, Membrane; conditions: hek293; Not Active = under 50% inhibition at 10 µM
[7] = biological target: T4, Neuropeptide Y receptor type 1 (Homo sapiens, UniProt P25929); format: cell membranes, Membrane; conditions: sk-n-mc; note: in other assays of this panel Not Active means under 50% inhibition at 10 µM
T4 sequence (P25929 whole entry): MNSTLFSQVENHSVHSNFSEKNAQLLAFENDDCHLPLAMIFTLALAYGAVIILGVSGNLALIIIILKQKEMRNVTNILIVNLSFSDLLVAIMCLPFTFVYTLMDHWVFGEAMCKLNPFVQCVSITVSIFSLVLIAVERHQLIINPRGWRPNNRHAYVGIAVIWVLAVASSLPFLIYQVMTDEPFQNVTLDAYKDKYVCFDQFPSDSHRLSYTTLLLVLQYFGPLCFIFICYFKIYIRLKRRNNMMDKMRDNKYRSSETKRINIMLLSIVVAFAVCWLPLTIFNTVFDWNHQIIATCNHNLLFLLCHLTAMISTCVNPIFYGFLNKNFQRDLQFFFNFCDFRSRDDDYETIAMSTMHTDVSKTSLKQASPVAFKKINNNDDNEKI

[8] = biological target: T5, 5-hydroxytryptamine receptor 1A (Rattus norvegicus, UniProt P19327); format: cell membranes, CHO-K1, Membrane; conditions: for Ki: read-out: Ki
T5 sequence (P19327 whole entry): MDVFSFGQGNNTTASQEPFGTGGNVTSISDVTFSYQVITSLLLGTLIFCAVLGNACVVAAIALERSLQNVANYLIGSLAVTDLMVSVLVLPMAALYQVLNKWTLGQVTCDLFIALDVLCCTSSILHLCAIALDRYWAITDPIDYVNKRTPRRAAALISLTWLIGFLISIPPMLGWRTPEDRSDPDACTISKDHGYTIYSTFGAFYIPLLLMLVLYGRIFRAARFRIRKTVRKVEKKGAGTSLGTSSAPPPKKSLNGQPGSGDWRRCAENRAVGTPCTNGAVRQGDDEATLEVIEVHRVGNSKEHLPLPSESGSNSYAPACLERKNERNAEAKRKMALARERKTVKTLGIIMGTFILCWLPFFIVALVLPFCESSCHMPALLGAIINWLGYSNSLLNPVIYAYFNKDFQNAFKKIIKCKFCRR

Adenosine receptor A3 = biological target: T6, Adenosine receptor A3 (Homo sapiens, UniProt P0DMS8); format: cell membranes, CHO-K1, Membrane
T6 sequence (P0DMS8 whole entry): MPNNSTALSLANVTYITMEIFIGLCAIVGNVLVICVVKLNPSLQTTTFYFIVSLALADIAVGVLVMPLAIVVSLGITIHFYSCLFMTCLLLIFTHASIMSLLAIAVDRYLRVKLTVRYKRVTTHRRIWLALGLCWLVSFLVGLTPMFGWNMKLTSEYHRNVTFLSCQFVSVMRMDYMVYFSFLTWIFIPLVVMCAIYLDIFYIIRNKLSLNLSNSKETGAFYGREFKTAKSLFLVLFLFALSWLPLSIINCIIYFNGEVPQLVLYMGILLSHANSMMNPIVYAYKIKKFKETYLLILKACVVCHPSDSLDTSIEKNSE

SMILES | IC50 [1] | Ki [1] | IC50 [2] | Ki [2] | IC50 [3] | Ki [3] | IC50 (Substance-K receptor; cho) | IC50 [4] | IC50 [5] | IC50 [6] | Ki [6] | IC50 [7] | IC50 ([8]; read-out: IC50) | Ki [8] | IC50 (Adenosine receptor A3; cho-k1) | IC50 ([8]; cho-k1) | IC50 (Substance-K receptor; read-out: IC50) | Ki (Substance-K receptor; read-out: Ki) | IC50 (Adenosine receptor A3; read-out: IC50) | Ki (Adenosine receptor A3; read-out: Ki)
CC(C)NC[C@H](O)COc1cccc2[nH]ccc12 | Not Active | Not Active | Not Active | Not Active | Not Active | Not Active | Not Active | Not Active | Not Active | Not Active | Not Active | Not Active | 28 nM | 16 nM | Not Active |  |  |  |  | 
CC=CC(=O)N(CC)c1ccccc1C | Not Active | Not Active | Not Active | Not Active | Not Active | Not Active | Not Active | Not Active | Not Active | Not Active | Not Active | Not Active |  |  | Not Active | Not Active |  |  |  | 
CC(=O)O[C@]1(C(C)=O)CC[C@H]2[C@@H]3C=C(Cl)C4=CC(=O)CC[C@]4(C)[C@H]3CC[C@@]21C [CHLORMADINONE ACETATE] | Not Active | Not Active | Not Active | Not Active | Not Active | Not Active | Not Active | Not Active | Not Active | Not Active | Not Active | Not Active |  |  | Not Active | Not Active |  |  |  | 
Cn1cnc([N+](=O)[O-])c1Sc1ncnc2nc[nH]c12 [AZATHIOPRINE] | Not Active | Not Active | Not Active | Not Active | Not Active | Not Active | Not Active | Not Active | Not Active | Not Active | Not Active | Not Active |  |  | Not Active | Not Active |  |  |  | 
Oc1c(Cl)cc(Cl)cc1Sc1cc(Cl)cc(Cl)c1O [BITHIONOL] | Not Active | Not Active | Not Active | Not Active | Not Active | Not Active |  | Not Active | Not Active | Not Active | Not Active | Not Active | 5510 nM | 3150 nM |  |  | 4.66 µM | 1550 nM | 829 nM | 468 nM
COC1=CC(=O)C[C@@H](C)[C@]12Oc1c(Cl)c(OC)cc(OC)c1C2=O [GRISEOFULVIN] | Not Active | Not Active | Not Active | Not Active | Not Active | Not Active | Not Active | Not Active | Not Active | Not Active | Not Active | Not Active |  |  | Not Active | Not Active |  |  |  | 
CN1C[C@H](C(=O)N[C@]2(C)O[C@@]3(O)[C@@H]4CCCN4C(=O)[C@H](Cc4ccccc4)N3C2=O)C=C2c3cccc4[nH]cc(c34)C[C@H]21 [ERGOTAMINE] | Not Active | Not Active | Not Active | Not Active | Not Active | Not Active | Not Active | Not Active | Not Active | Not Active | Not Active | Not Active | 0.774 nM | 0.443 nM | Not Active |  |  |  |  | 
CCCc1cc(=O)[nH]c(=S)[nH]1 [PROPYLTHIOURACIL] | Not Active | Not Active | Not Active | Not Active | Not Active | Not Active | Not Active | Not Active | Not Active | Not Active | Not Active | Not Active |  |  | Not Active | Not Active |  |  |  | 
Nc1nc2c(ncn2COC(CO)CO)c(=O)[nH]1 [GANCICLOVIR] | Not Active | Not Active | Not Active | Not Active | Not Active | Not Active | Not Active | Not Active | Not Active | Not Active | Not Active | Not Active |  |  | Not Active | Not Active |  |  |  | 
CC(=O)OCC(=O)[C@@]1(OC(C)=O)[C@@H](C)C[C@H]2[C@@H]3C[C@H](F)C4=CC(=O)C=C[C@]4(C)[C@@]3(F)[C@@H](O)C[C@@]21C [DIFLORASONE DIACETATE] | Not Active | Not Active | Not Active | Not Active | Not Active | Not Active | Not Active | Not Active | Not Active | Not Active | Not Active | Not Active |  |  | Not Active | Not Active |  |  |  | 
